Values quoted from earlier work as cited in US7511157B2, “Hepatitis C inhibitor dipeptide analogs” (Boehringer Ingelheim International GmbH, priority 2004, dated 2009).

Test system: hepatitis C virus
Details: two day clinical trial; Gastroenterology (2004) 127(5): 1347-1355

For `COc1ccc2c(O[C@@H]3C[C@H]4C(=O)N[C@]5(C(=O)O)C[C@H]5/C=C\CCCCC[C@H](NC(=O)OC5CCCC5)C(=O)N4C3)cc(-c3csc(NC(C)C)n3)nc2c1` [BILN 2061], the “reduction of viral loads in patients” value is given as “effective in rapidly reducing viral loads”.
